Test results reported in patent US12558338B2, “Pharmaceutical composition” (SUNSHINE LAKE PHARMA CO., LTD., priority 2019, dated 2026).

Experiment: Solubility in water
Type: physicochemical
Details: compared with memantine hydrochloride

solubility: almost insoluble in water
SMILES: CC12CC3CC(C)(C1)CC(NC(=O)OCOC(=O)c1ccccc1)(C3)C2 [formula A, ((((1r,3R,5S,7r)-3,5-dimethyladamantan-1-yl)carbamoyl)oxy)methyl benzoate]
